Test results from PMC4745082, “A Novel PET Imaging Probe for the Detection and Monitoring of Translocator Protein 18 kDa Expression in Pathological Disorders” (Scientific Reports, 2016).
Entries after “also recorded” stand apart in the source; their conditions may differ.

Tests used:
TSPO = TSPO (Rattus norvegicus, UniProt P16257); experiment: microPET in LPS-induced neuroinflammation rat model; assay type: in vivo; set-up: from tissue; host or cells: Living rat brain (ipsilateral and contralateral striatum), LPS-injected Sprague-Dawley rats
Chain of TSPO (P16257 whole entry): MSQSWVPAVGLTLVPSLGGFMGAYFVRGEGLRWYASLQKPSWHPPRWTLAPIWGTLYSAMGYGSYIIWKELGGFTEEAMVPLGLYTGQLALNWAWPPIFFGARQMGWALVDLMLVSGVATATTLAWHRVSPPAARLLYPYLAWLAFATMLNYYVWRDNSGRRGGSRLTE
Procedure: Male Sprague-Dawley rats weighing 200–250 g were used for the brain inflammation model and neuroinflammation was induced using lipopolysaccharide (LPS; Sigma-Aldrich, St. Louis, MO, U.S.A.) as previously described. In all rats used for sequential PET scans, microglia activation between the ipsilateral and contralateral areas was determined by CD68 immunohistochemical staining.
Five LPS-induced neuroinflammation rats (219.2 ± 14.1 g) were used for brain PET imaging at 4 days post-LPS injection. Before the scan, the rats were anesthetized with 2% isoflurane in a 7:3 mixture of N2/O2. PET imaging of the rat brain was performed in a dedicated small animal PET/CT (NanoPET/CT, Bioscan, Inc., U.S.A.) with a 10-cm axial field-of-view (FOV) and a 12-cm transaxial FOV. […] To determine the TSPO selectivity and TSPO specificity of the PET images, flumazenil (5 mg/kg intravenously) was administered at 15 min post [^18F]CB251 injection via jugular catheter. Subsequently, PBR28 (5 mg/kg intravenously) was injected 30 min later via jugular catheter in the same LPS-induced neuroinflammation rat model. Three human glioblastoma U87-MG-bearing mice were used for TSPO-rich cancer PET imaging. PET scans of the mice, anesthetized with 2% isoflurane, were performed with a 9.3-cm axial, 8.4-cm trans-axial FOV scanner. At the end of each study, the list-mode data were sorted into a dynamic scan consisting of 54 frames for 90 min. The acquired images were reconstructed by the 3-D Adjoints Monte Carlo method, which included scatter and random corrections. A region of interest (ROI) with a 2-mm radius was delineated in the ipsilateral lesioned striatum by the intensely visualized region in the summed image of all the frames. Regional uptake of radioactivity was decay-corrected to the injection time and was expressed as the standardized uptake value (SUV), which was normalized to the injected radioactivity and animal body weight. Analysis of the PET images was performed using PMOD software v.3.1 (PMOD Technologies Ltd., Zurich, Switzerland). The time activity curve (TAC) representing the variation in radioligand concentration according to the time-course was estimated for the ipsilateral striatum.

[1] = Ex vivo tissue distribution in normal ICR mice; conditions: for tissue radioactivity, Adrenal / tissue radioactivity, Blood / tissue radioactivity, Brain / tissue radioactivity, Femur / tissue radioactivity, Heart / tissue radioactivity, Kidney / tissue radioactivity, L. Intestine / tissue radioactivity, Liver / tissue radioactivity, Lung / tissue radioactivity, Muscle / tissue radioactivity, S. Intestine / tissue radioactivity, Spleen / tissue radioactivity, Stomach: normal ICR mice, tail-vein injection
Procedure: Purified [^18F]CB251 was reconstituted in a 10% ethanol-saline solution. Animals were killed at various times after tail-vein injection of [^18F]CB251 (0.74 MBq/0.2 mL per mouse) and the radioactivity concentrations were measured in various tissues upon dissection. […] The radioactivity concentration in the femur remained low for 120 min (1.19 ± 0.50%ID/g at 5 min post injection; 1.49 ± 0.80%ID/g at 120 min post injection).
Tissue distribution studies were performed in normal male ICR mice (7 weeks, 25-30 g) with tail-vein administration of [^18F]CB251 (0.74 MBq/mouse) dissolved in 10% ethanol in saline to a final volume of 200 μL. The animals (n = 5 for each time point) were euthanised with diethyl ether at 5, 15, 30, 60 and 120 min post injection. After the mice were euthanised, blood and other organs such as the heart, liver, lung, stomach, spleen, kidney, intestine, muscle, brain, adrenal and femur were removed, weighed and counted for radioactivity in a NaI (Tl) well counter (Wizard^TM3”, PerkinElmer). The injected dose was calculated from standards prepared from the injection solution. The accumulated radioactivity of all tissues is presented as the percentage of the injected dose per gram of tissue (%ID/g). All animal studies were performed with the approval of the Institutional Animal Care and Use Committee of the Seoul National University Bundang Hospital (SNUBH) and the methods were carried out in accordance with the approved guidelines.

## CCCN(CCC)C(=O)Cc1c(-c2ccc(OCC[18F])cc2)nc2c(Cl)cc(Cl)cn12 [[^18F]CB251, 2-(2-(4-(2-[^18F]fluoroethoxy)phenyl)-6,8-dichloroimidazo[1,2-a]pyridin-3-yl)-N,N-dipropylacetamide]
TSPO; 30 min post injection
  uptake ratio between the ipsilateral area and the contralateral area: 2.35 times
TSPO; displacement, PBR28 5 mg/kg intravenously 30 min after flumazenil
  uptake of [18F]CB251 in the ipsilateral area after PBR28 injection: decreased significantly; also recorded: significantly decreased
TSPO; displacement, flumazenil 5 mg/kg intravenously at 15 min post injection
  uptake of [18F]CB251 in the ipsilateral region after flumazenil: did not prevent the uptake
TSPO; ipsilateral striatum, contralateral striatum as reference, Logan plot with reference tissue input
  binding potential of the specifically bound radioligand relative to the non-displaceable radioligand in tissue (BPND): 1.83 ± 0.18
TSPO; summed microPET images
  uptake in the skull: no significant uptake
[1]; healthy mice, summary bound in text, indicates negligible defluorination
  uptake of radioactivity in the femur: < 2 %ID/g
[1]; male, ICR, mouse, in vivo
  uptake in TSPO-enriched tissues: > 22 %ID/g
[1]; 5 min post injection
  tissue radioactivity, Adrenal: 19.06 ± 5.48 %ID/g
  tissue radioactivity, Blood: 4.39 ± 0.78 %ID/g
  tissue radioactivity, Brain: 2.89 ± 0.23 %ID/g
  tissue radioactivity, Femur: 1.19 ± 0.50 %ID/g
  tissue radioactivity, Heart: 29.49 ± 2.36 %ID/g
  tissue radioactivity, Kidney: 22.17 ± 1.63 %ID/g
  tissue radioactivity, L. Intestine: 1.54 ± 0.19 %ID/g
  tissue radioactivity, Liver: 4.69 ± 0.66 %ID/g
  tissue radioactivity, Lung: 106.4 ± 8.61 %ID/g
  tissue radioactivity, Muscle: 0.83 ± 0.34 %ID/g
  tissue radioactivity, S. Intestine: 3.30 ± 0.73 %ID/g
  tissue radioactivity, Spleen: 17.63 ± 3.38 %ID/g
  tissue radioactivity, Stomach: 1.86 ± 0.48 %ID/g
[1]; 15 min post injection
  tissue radioactivity, Adrenal: 22.60 ± 5.00 %ID/g
  tissue radioactivity, Blood: 2.17 ± 0.40 %ID/g
  tissue radioactivity, Brain: 1.94 ± 0.24 %ID/g
  tissue radioactivity, Femur: 1.25 ± 0.41 %ID/g
  tissue radioactivity, Heart: 24.16 ± 4.67 %ID/g
  tissue radioactivity, Kidney: 24.55 ± 5.11 %ID/g
  tissue radioactivity, L. Intestine: 1.53 ± 0.13 %ID/g
  tissue radioactivity, Liver: 6.67 ± 1.10 %ID/g
  tissue radioactivity, Lung: 65.70 ± 11.3 %ID/g
  tissue radioactivity, Muscle: 1.19 ± 0.22 %ID/g
  tissue radioactivity, S. Intestine: 4.54 ± 0.60 %ID/g
  tissue radioactivity, Spleen: 25.11 ± 2.16 %ID/g
  tissue radioactivity, Stomach: 2.13 ± 0.77 %ID/g
[1]; 30 min post injection
  tissue radioactivity, Adrenal: 19.73 ± 3.42 %ID/g
  tissue radioactivity, Blood: 1.24 ± 0.26 %ID/g
  tissue radioactivity, Brain: 1.39 ± 0.13 %ID/g
  tissue radioactivity, Femur: 1.94 ± 0.36 %ID/g
  tissue radioactivity, Heart: 23.11 ± 5.16 %ID/g
  tissue radioactivity, Kidney: 23.19 ± 5.68 %ID/g
  tissue radioactivity, L. Intestine: 1.69 ± 0.21 %ID/g
  tissue radioactivity, Liver: 8.19 ± 1.59 %ID/g
  tissue radioactivity, Lung: 38.36 ± 3.97 %ID/g
  tissue radioactivity, Muscle: 2.01 ± 0.34 %ID/g
  tissue radioactivity, S. Intestine: 4.43 ± 0.90 %ID/g
  tissue radioactivity, Spleen: 23.27 ± 3.52 %ID/g
  tissue radioactivity, Stomach: 1.84 ± 0.49 %ID/g
[1]; 60 min post injection
  tissue radioactivity, Adrenal: 12.69 ± 5.62 %ID/g
  tissue radioactivity, Blood: 0.60 ± 0.12 %ID/g
  tissue radioactivity, Brain: 0.63 ± 0.24 %ID/g
  tissue radioactivity, Femur: 1.41 ± 0.64 %ID/g
  tissue radioactivity, Heart: 10.47 ± 4.50 %ID/g
  tissue radioactivity, Kidney: 14.55 ± 5.74 %ID/g
  tissue radioactivity, L. Intestine: 1.37 ± 0.56 %ID/g
  tissue radioactivity, Liver: 6.80 ± 2.64 %ID/g
  tissue radioactivity, Lung: 17.69 ± 5.77 %ID/g
  tissue radioactivity, Muscle: 1.52 ± 0.59 %ID/g
  tissue radioactivity, S. Intestine: 3.43 ± 1.35 %ID/g
  tissue radioactivity, Spleen: 14.24 ± 4.47 %ID/g
  tissue radioactivity, Stomach: 0.98 ± 0.41 %ID/g
[1]; 120 min post injection
  tissue radioactivity, Adrenal: 14.78 ± 8.26 %ID/g
  tissue radioactivity, Blood: 0.64 ± 0.26 %ID/g
  tissue radioactivity, Brain: 0.53 ± 0.23 %ID/g
  tissue radioactivity, Femur: 1.49 ± 0.80 %ID/g
  tissue radioactivity, Heart: 8.62 ± 4.57 %ID/g
  tissue radioactivity, Kidney: 15.60 ± 8.55 %ID/g
  tissue radioactivity, L. Intestine: 2.09 ± 1.07 %ID/g
  tissue radioactivity, Liver: 7.17 ± 2.99 %ID/g
  tissue radioactivity, Lung: 13.22 ± 6.10 %ID/g
  tissue radioactivity, Muscle: 1.45 ± 0.65 %ID/g
  tissue radioactivity, S. Intestine: 3.78 ± 1.96 %ID/g
  tissue radioactivity, Spleen: 13.82 ± 5.17 %ID/g
  tissue radioactivity, Stomach: 1.97 ± 0.95 %ID/g
